{"source": "PubChem BioAssay AID2305", "about": "(GlaxoSmithKline (GSK), 2010)"}
{"tested_on": "P. falciparum 3D7 growth, pLDH absorbance", "assay": "P. falciparum 3D7 growth inhibition, dose response, strain 3D7 (AID 2305)", "units": {"IC50": "nM"}}
{"smiles": "NC(N)=Nc1ccc(C(=O)O)c(O)c1", "IC50": 1030}
{"smiles": "COc1cc2nc(N3CCN(C(=O)c4ccc(N(C(=O)OC(C)(C)C)C(=O)OC(C)(C)C)cc4)CC3)nc(N)c2cc1OC", "IC50": 1000}
{"smiles": "CCCNc1ccc2nccc(CCN3CCC(NCc4ccc5c(c4)NC(=O)CS5)CC3)c2n1", "IC50": 580}
{"smiles": "O=C(NCc1cccc2ccccc12)[C@@H]1CCCN1C(=O)c1ccc(O)c(-c2ccc(Cl)c(Cl)c2)c1", "IC50": 950}
{"smiles": "CCN(CC)C(=NCCCCCCN=C(/N=C(/N)Nc1ccc(C)cc1)N(CC)CC)/N=C(/N)Nc1ccc(C)cc1", "IC50": 540}
{"smiles": "CC(Cc1ccc([N+](=O)[O-])cc1)NCC(O)c1cccc(C(F)(F)F)c1", "note": "(stereo not drawn)", "IC50": 900}
{"smiles": "O=C(c1ccco1)N1CCN(c2ccc([N+](=O)[O-])c(NC3CC3)c2)CC1", "IC50": 750}
{"smiles": "Cc1cc(Cl)ccc1NC(=O)Nc1ccc2nccc(N3CCN(C)CC3)c2c1", "IC50": 390}
{"smiles": "O=C(Nc1ccccc1)Nc1cccc(-c2cccc(-c3nc4ccc(F)cc4[nH]3)c2)c1", "IC50": 180}
{"smiles": "NC(N)=NN=Cc1ccccc1OCc1ccccc1Cl", "IC50": 720}
{"smiles": "CCCCCCOc1ccc(C(=O)NCCCC2CCCN(CCCCCNC(=O)C=Cc3ccc(Cl)c(Cl)c3)C2)cc1", "note": "(stereo not drawn)", "IC50": 700}
{"smiles": "Oc1cccc(Nc2nc(NCC3CCCO3)c3ccccc3n2)c1", "note": "(stereo not drawn)", "IC50": 810}
{"smiles": "Cc1cc(N[C@@H](Cc2ccccc2)C(=O)NCCOc2ccccc2)nc(Nc2ccccc2)n1", "IC50": 870}
{"smiles": "CS(=O)(=O)NCCCNCc1ccc(-c2ccc(-c3nc4ccc(F)cc4[nH]3)s2)cc1", "IC50": 810}
{"smiles": "O=C(NCC1CCN(CCN2CCC(c3cn(CCO)c4ccccc34)CC2)CC1)c1ccc(-c2ccc(C(F)(F)F)cc2)cc1", "IC50": 440}
{"smiles": "O=C(Nc1ccc(Cn2ncc(N3CCCNCC3)c(Cl)c2=O)cc1)Nc1cccc(SC(F)(F)F)c1", "IC50": 680}
{"smiles": "CC(NC(=O)c1ccc(O)c(-c2ccc(Cl)c(Cl)c2)c1)C(=O)NCCN1CCCC1", "note": "(stereo not drawn)", "IC50": 760}
{"smiles": "CCN(CCS(C)(=O)=O)Cc1ccc(-c2ccc3ncnc(Nc4ccc(OCc5cccc(F)c5)c(Cl)c4)c3c2)o1", "IC50": 610}
{"smiles": "O=C(NCC1CCN(C/C=C/c2ccccc2)CC1)Nc1ccc(Oc2ccccc2)cc1", "IC50": 1040}
{"smiles": "CC[C@H](C)CNC(=O)c1ccc(-c2cccc(CN3CCC(N4CCCC4)CC3)c2)nc1", "IC50": 790}
{"smiles": "COC(=O)c1ccc(OCC(C)NCC(O)c2cccc(C(F)(F)F)c2)cc1", "note": "(stereo not drawn)", "IC50": 840}
{"smiles": "CCCCCCC(C)(C)c1cc(O)c2c(c1)OC(C)(C)c1ccncc1-2", "IC50": 180}
{"smiles": "Cc1cc(C)c(C)c(S(=O)(=O)N2CCCCC(c3ccc(F)c(F)c3)=N2)c1C", "IC50": 710}
{"smiles": "Cc1sc2ncnc(Sc3nc4ccccc4[nH]3)c2c1C", "IC50": 260}
{"smiles": "O=C(Nc1ccc(-c2ccc(-c3nc4ccc(C(F)(F)F)cc4[nH]3)s2)cc1)c1ccoc1", "IC50": 850}
{"smiles": "C=C(NC(=O)C1CCCCC1)C(=O)OC", "IC50": 850}
{"smiles": "COC(=O)c1cccc(CNCc2ccc(-c3cccc(-c4nc5ccc(C(F)(F)F)cc5[nH]4)c3)cc2)c1", "IC50": 160}
{"smiles": "Oc1cc(Nc2ccnc3cc(-c4ccc(CN5CCCCC5)o4)c(Cl)cc23)c(Cl)cc1F", "IC50": 1260}
{"smiles": "CC(Cc1ccc(OCCCCOc2ccccc2)cc1)NCCC1CCCN1C", "note": "(stereo not drawn)", "IC50": 40}
{"smiles": "CC(CN1CCN(C)CC1)C(=O)Nc1ccc(-c2ccc(-c3nc4ccc(C(F)(F)F)cc4[nH]3)cc2)cc1", "note": "(stereo not drawn)", "IC50": 410}
{"smiles": "Cc1cc(-c2ccnc(Nc3cccc(C#N)c3)n2)cc(C)c1O", "IC50": 920}
{"smiles": "NC(=O)c1ccccc1OCC(=O)Nc1cccc(-c2ccc(-c3nc4ccc(C(F)(F)F)cc4[nH]3)cc2)c1", "IC50": 650}
{"smiles": "CC(C)CNCc1ccc(-c2cccc(CN(C(=O)NC3CCCCC3)C3CCN(Cc4ccccc4)CC3)c2)cc1", "IC50": 800}
{"smiles": "Cc1cc(NCCC(=O)NCCOc2ccccc2)nc(NCCc2ccccc2)n1", "IC50": 1230}
{"smiles": "NOCCCCOc1ccccc1", "IC50": 180}
{"smiles": "Cc1cc(N)c2cc(NC(=O)c3cccc4ccccc34)ccc2n1", "IC50": 840}
{"smiles": "CCCN1CCCN(Cc2cccc(NC(=O)c3ccc(-c4ccccc4)cc3)c2)CC1", "IC50": 1110}
{"smiles": "O=C(Nc1cccc(-c2nn3ncccc3c2-c2ccnc(Nc3cccc(C(F)(F)F)c3)n2)c1)c1c(F)cccc1F", "IC50": 650}
{"smiles": "O=C(Cc1ccc(Cl)cc1)NC1CCN(c2ccnc3cc(Cl)ccc23)C1", "note": "(stereo not drawn)", "IC50": 230}
{"smiles": "CCOc1c(CNCCCNc2nc3ccccc3[nH]2)cc(Br)cc1OC", "IC50": 560}
{"smiles": "NC(N)=Nc1ccc(Cc2ccc(N=C(N)N)cc2)cc1", "IC50": 260}
{"smiles": "CCCCC(CCCC)CN1C(=O)C(c2ccccc2)(c2ccccc2)N=C1N", "IC50": 180}
{"smiles": "Clc1ccc2c(NN=Cc3ccccc3)ccnc2c1", "IC50": 760}
{"smiles": "Cc1onc(-c2ccccc2)c1-c1nc(NCCC(c2ccccc2)c2ccccc2)no1", "IC50": 840}
{"smiles": "CC(C)c1ncc(-c2ccncc2)c(C2CCC(CNC(=O)c3cccnc3)CC2)n1", "note": "(stereo not drawn)", "IC50": 780}
{"smiles": "Oc1ccc2[nH]cc(C3CCN(CCCNCc4ccc(-c5ccccc5)cc4)CC3)c2c1", "IC50": 720}
{"smiles": "O=C(NCCCNc1nc2ccccc2[nH]1)c1cccc(OC(F)(F)F)c1", "IC50": 570}
{"smiles": "Cc1ccc(S(=O)(=O)N2CCCN(C(=O)c3cc(-c4ccccc4)n[nH]3)CC2)cc1", "IC50": 80}
{"smiles": "Cc1cc(NCC(c2ccccc2)c2ccccc2)nc(NCC2CCCCC2)n1", "IC50": 510}
{"smiles": "N#Cc1ccc(-c2ccc(C(=O)NCCCCN3CCC(n4cnc5ccccc54)CC3)cc2)cc1", "IC50": 910}
{"smiles": "CCCC(C)c1ccc(N2C(N)=NC(N)=NC2(C)C)cc1", "note": "(stereo not drawn)", "IC50": 10}
{"smiles": "O=S(=O)(Nc1cccc(CCN2CCC(N3CCCCC3)CC2)c1)c1ccc2c(c1)OCCO2", "IC50": 1230}
{"smiles": "NC1CCN(c2nc(NCCCc3ccc(O)cc3)nc(NCc3ccccc3-c3ccc(C(F)(F)F)cc3)n2)CC1", "IC50": 730}
{"smiles": "C=C[C@]1(C)C[C@@H](OC(=O)NC(=O)CCCS(=O)(=O)c2nnc(C)s2)[C@]2(C)[C@H](C)CC[C@]3(CCC(=O)[C@H]32)[C@@H](C)[C@@H]1O", "IC50": 30}
{"smiles": "COc1ccccc1/C=C/C(=O)N(C)C1CCN(CCCCCNC(=O)/C=C/c2ccc(Cl)c(Cl)c2)C1", "note": "(stereo not drawn)", "IC50": 870}
{"smiles": "Cc1cccc2[nH]c(-c3ccc(-c4cccc(NC(=O)c5ccncc5)c4)cc3)nc12", "IC50": 840}
{"smiles": "Cc1cc(N2CCCC2)nc(Nc2ccc(NC(=O)C(C)C)cc2)n1", "IC50": 1100}
{"smiles": "O=C(NCc1ccc(F)cc1)c1cc(Br)cc(N2CCN(c3ccncc3)CC2)c1", "IC50": 1230}
{"smiles": "Cc1cc2c3c(N)nc(N)nc3ccc2n1C(C)C", "IC50": 10}
{"smiles": "Cc1cc2nc(-c3ccc(/C=C/C(=O)NCc4ccc(Cl)c(Cl)c4)cc3)[nH]c2cc1C", "IC50": 820}
{"smiles": "Cc1ccc(NC(=O)c2cccc(C#N)c2)cc1-c1ccc(C(=O)Nc2ccncc2)cc1", "IC50": 690}
{"smiles": "O=C(/C=C/c1ccc(Cl)c(Cl)c1)NCCCCCN1CC[C@H](NC(=O)c2ccc3c(c2)OCO3)C1", "IC50": 940}
{"smiles": "CC(C)NCc1ccc(-c2ccc(NC(=O)c3cccc(Cl)c3)cc2)cc1", "IC50": 960}
{"smiles": "CCCCCCN1CCN(Cc2cccc(NC(=O)c3ccc(Cl)c(Cl)c3)c2)CC1", "IC50": 610}
{"smiles": "O=C(NCCCCN1CCC(c2ccc3c(c2OCCCO)CCCC3)CC1)c1ccc(-c2ccc(C(F)(F)F)cc2)cc1", "IC50": 720}
{"smiles": "O=C(Nc1ccc(-c2cccc(-c3nc4ccc(C(F)(F)F)cc4[nH]3)c2)cc1)c1ccncc1", "IC50": 660}
{"smiles": "COc1ccc(NC(=O)c2cccc(Br)c2)cc1N1CCN(CCCCCCCN2CCN(c3cc(NC(=O)c4cccc(Br)c4)ccc3OC)CC2)CC1", "IC50": 180}
{"smiles": "CN1CCN(c2ccnc3ccc(NC(=O)Nc4cccc5c(-c6ccncc6)cccc45)cc23)CC1", "IC50": 880}
{"smiles": "O=C1COC(c2ccccc2)(c2ccccc2)CN1CC1CCN(Cc2ccc(O)cc2Cl)C1", "note": "(stereo not drawn)", "IC50": 1000}
{"smiles": "COC(=O)c1ccc(CC(C)NCC(O)c2ccc(F)c(Cl)c2)cc1", "note": "(stereo not drawn)", "IC50": 860}
{"smiles": "Fc1cccc(Cn2ncc3cc(Nc4ncnc5sc(C#Cc6ncc[nH]6)cc45)ccc32)c1", "IC50": 1800}
{"smiles": "N#Cc1ccc2c(c1)CN(C1CCC(NC(=O)/C=C/c3cc(C(F)(F)F)cc(C(F)(F)F)c3)CC1)CCC2", "note": "(stereo not drawn)", "IC50": 1390}
{"smiles": "COc1ccc(CCNCCCCCCNCCc2ccc(Cl)c(Cl)c2)cc1OC", "IC50": 930}
{"smiles": "O=S(=O)(NCCN1CCCC1)c1cccc(-c2cccc(CNCc3ccc(F)cc3)c2)c1", "IC50": 850}
{"smiles": "O=C(CC1SC(N2N=C(c3cccs3)CC2c2ccccc2)=NC1=O)Nc1ccccc1F", "note": "(stereo not drawn)", "IC50": 1090}
{"smiles": "Cc1cc(C(=O)CN2C(=O)NC3(CCCc4ccccc43)C2=O)c(C)n1Cc1ccc(F)cc1", "note": "(stereo not drawn)", "IC50": 970}
{"smiles": "CN=C(N)c1ccc(NC(=O)Nc2ccc(C(N)=NC)cc2)cc1", "IC50": 580}
{"smiles": "Cc1ccc(/C=C/C(=O)NC2CCC(N3CCC(c4ccccc4C)CC3)CC2)cc1F", "note": "(stereo not drawn)", "IC50": 1040}
{"smiles": "Cc1cc(N[C@@H](Cc2ccccc2)C(=O)Nc2ccccc2)nc(NCCc2cccs2)n1", "IC50": 800}
{"smiles": "CCN(CC)CCCNc1ncc2c(-c3ccc(NC(=O)Nc4cc(C(F)(F)F)ccc4F)cc3)nn(C)c2n1", "IC50": 220}
{"smiles": "CNCCNCc1ccc(-c2cccc(-c3nc4ccc(F)cc4[nH]3)c2)cc1", "IC50": 1130}
{"smiles": "O=C(NCCCCN1CCC(c2ccc3ccccc3c2)CC1)c1ccc(NC(=O)c2ccc(Cl)cc2)cc1", "IC50": 230}
{"smiles": "Cc1ccc(NC(=O)c2ccc3ncccc3c2)cc1OC1CCN(Cc2ccc(F)cc2)CC1", "IC50": 940}
{"smiles": "C=C(C)CSc1nc2c(c(=O)n1CCc1ccccc1)C1(CCCC1)Cc1ccccc1-2", "IC50": 610}
{"smiles": "O=S(=O)(c1csc2ccccc12)N(CCC(O)(C(F)(F)F)C(F)(F)F)Cc1cccc(O)c1", "IC50": 360}
{"smiles": "Cc1cccc(Cn2c(C(N)=O)nn(-c3ccc([N+](=O)[O-])cc3C#N)c2=S)c1", "IC50": 730}
{"smiles": "Cc1csc(-c2ncc(OC[C@@H](N)Cc3ccccc3)cc2-c2ccc3n[nH]c(C)c3c2)c1", "IC50": 840}
{"smiles": "COc1ccc(CNCc2ccccc2)cc1-c1ccc(OC)c(S(=O)(=O)NCCN2CCCC2)c1", "IC50": 830}
{"smiles": "CCOc1cc(C)ccc1C1CCN(CCCCNC(=O)c2cccc(-c3ccc(C(F)(F)F)cc3)c2)CC1", "IC50": 940}
{"smiles": "Cc1cc(CNCC(CCNc2cc(=O)c3ccccc3[nH]2)NCc2cc(Br)cc(Br)c2)oc1C", "note": "(stereo not drawn)", "IC50": 890}
{"smiles": "O=C(Nc1ccc(Cl)c(Cl)c1)N1CCC(NCc2cccc([N+](=O)[O-])c2)CC1", "IC50": 760}
{"smiles": "COc1ccc2nccc([C@@H](O)CN3CCC(NC(=O)c4cc5c(Cl)cc(Cl)cc5[nH]4)CC3)c2c1", "IC50": 230}
{"smiles": "CN1CCN(Cc2cccc(-c3ccc4c(Nc5cc(O)c(Cl)cc5F)ccnc4c3)c2)CC1", "IC50": 770}
{"smiles": "Cc1cc(N(C)C2CCN(C)CC2)nc(Nc2ccc(Br)cc2)n1", "IC50": 480}
{"smiles": "COc1ccc(NC(=O)Nc2nc(-c3ccc(Cl)c(C)c3)cs2)cc1N1CCN(C)CC1", "IC50": 270}
{"smiles": "COc1cc2ncnc(Nc3ccc(Br)c(Cl)c3)c2cc1OC", "IC50": 720}
{"smiles": "O=C(C=NO)Nc1ccccc1[N+](=O)[O-]", "IC50": 790}
{"smiles": "COc1ccc(NC(=O)N2CCc3ccc(OCCN(C(C)C)C(C)C)cc32)cc1C(F)(F)F", "IC50": 970}
